Measurements as given in patent publication US20070010664A1, “Gene expression in the central nervous system regulated by neuroleptic agents” (priority 2001, published 2007).

Key:
[1] = test system: CLZ_44 (SEQ ID NO:38) mRNA; experiment: Northern blot analysis of CLZ_44 in striatum/nucleus accumbens; assay type: in vivo, mouse; conditions: 2 weeks of treatment; clozapine 7.5 mg/kg, haloperidol 4 mg/kg, ketanserin 4 mg/kg
Description: FIG. 39 is a graphical representation of a Northern Blot analysis of clone CLZ—44 (ACGG 352) (SEQ ID NO:38), where an agarose gel containing poly A enriched mRNA from the striatum/nucleus accumbens of clozapine-treated mice as well as size standards was blotted after electrophoresis and probed with radiolabelled CLZ—44.
In further characterization of CLZ—44, Northern blot analyses were performed to determine the pattern of expression in the striatum/nucleus accumbens after 2 weeks of treatment of control mice, clozapine-treated mice, haloperidol-treated mice, and ketanserin-treated mice (FIG. 39). Ketanserin is a 5HT2A/2C—selective antagonist, and is used to determine serotonorgic involvement in these drug effects. FIG. 39 is a graphical representation of the described northern blot analyses.

[2] = test system: apoD mRNA; experiment: apoD mRNA expression in mouse brain after 5HT2 antagonists (preliminary results); assay type: in vivo
[3] = test system: CLZ_40 (SEQ ID NO:12) mRNA; experiment: Real Time PCR validation of CLZ_40; assay type: in vivo, mouse; conditions: mice chronically (2 weeks) treated
Text: Validation of the DST expression for select DSTs was done by Real Time PCR using the ABI PRISM 7700 Sequence Detection System (PE Biosystems) that combines PCR, cycle-by-cycle fluorescence detection and analysis software for high-throughput quantitation of nucleic acid sequences. […] Standards for normalizing the quantitation of gene levels were chosen from a panel of 5 mouse “housekeeping” genes.

[4] = test system: mouse sequence homolog to human KIAA1451 (SEQ ID NO:79); experiment: Real Time PCR of mouse sequence homolog to human KIAA1451; conditions: mice chronically treated
[5] = test system: apoD mRNA; experiment: In situ hybridization analysis of apoD (CLZ_5) in mouse brain; assay type: in vivo; conditions: clozapine 7.5 mg/kg five days and two weeks: striatum, cortex, globus pallidus, thalamus, white matter tracts; haloperidol: gray or white matter regions
Description: In further characterization of CLZ—43, in situ hybridization analysis using an antisense cRNA probe directed against the 3′ end of CLZ—43 were performed to show the pattern of CLZ—43 mRNA expression (FIG. 4A-F). In situ hybridization was performed on free-floating coronal sections (25 μM thick) with an ^35S-labeled, single-stranded antisense cRNA probe of CLZ—43. Coronal sections were hybridized at 55° C for 16 hour with an ^35S-labeled, single-stranded antisense cRNA probe of CLZ—43 at 10^7 cpm/ml. The probe was synthesized from the 3′-ended cDNA TOGA™ clone using the Maxiscript Transcription Kit (Ambion, Austin, Tex.). Excess probe was removed by washing with 2×SSC (I×SSC=[…]) containing 14 mM β-mercaptoethanol (30 minutes), followed by incubation with 4 μg/ml ribonuclease in 0.5 M NaCl/0.05 M EDTA/0.05 M Tris-HCl, pH 7.5, for 1 hour at 37° C. High stringency washes were carried out at 55° C. for 2 hours in 0.5×SSC/50% formamide/0.01 M β-mercaptoethanol, and then at 68° C. for 1 hour in 0.1×SSC/0.01 M β-mercaptoethanol/0.5% sarkosyl. […]
To investigate additional sites of apoD induction, in situ hybridization analysis was performed on brains from saline- and clozapine-treated mice. […] Increases in apoD expression were also detected in white matter tracts, predominantly the corpus callosum (cc), anterior commissure, internal capsule (ic) and optic tract (opt). […]

[6] = test system: mRNAs (DSTs) expressed in striatum/nucleus accumbens; experiment: TOGA analysis of mRNA from striatum/nucleus accumbens of neuroleptic-treated mice (Table 1); conditions: haloperidol experiment in duplicate, average
[7] = test system: CLZ_43 (SEQ ID NO:37) mRNA; experiment: Real Time PCR validation of CLZ_43; conditions: clozapine 12 days; haloperidol 14 days; relative to untreated mice
[8] = test system: CLZ_5 (apoD) mRNA; experiment: Real Time PCR validation of CLZ_5 (apoD); assay type: in vivo, mouse; conditions: clozapine or haloperidol treated mice
[9] = test system: CLZ_40 (TTGT 266) mRNA in striatum and amygdala; experiment: TOGA analysis of mRNA from brain of morphine-treated mice; assay type: in vivo, mouse
Description: For the morphine studies, male C57B1/6J mice (20-28 g) were housed as previously described in Example 1 and divided into the following groups: 1) a control group, in which the mice were subcutaneusly implanted with one placebo pellet upon halothane anaesthesia; 2) an acute morphine group, in which the mice received a morphine intraperitoneal injection of 10 mg/kg; 3) a chronic or tolerant group, in which mice were rendered drug-tolerant and dependent by means of subcutaneous implantation of a single pellet containing 75 mg of morphine free base for 3 days; and 4) a withdrawal group, in which the mice rendered tolerant to morphine were injected intraperitoneally with naltrexone 1 mg/kg. […] Their brains were rapidly removed. The striatum, including the nucleus accumbens, and block of tissues containing the amygdala complex were dissected under microscope and collected in ice-cold RNA extraction buffer.

## O=C(c1ccc(F)cc1)C1CCN(CCn2c(=O)[nH]c3ccccc3c2=O)CC1 [ketanserin]
[1]
  CLZ_44 expression, Northern: up-regulated
[2]
  apoD mRNA expression in mouse brain: apparent upregulation

## CN1CCN(C2=Nc3cc(Cl)ccc3Nc3ccccc32)CC1 [clozapine]
[3]
  decrease in expression of CLZ_40, Real Time PCR: 0.37 fold
[4]
  increase in expression of mouse homolog to human KIAA1451, Real Time PCR: 2.09 fold

## O=C(CCCN1CCC(O)(c2ccc(Cl)cc2)CC1)c1ccc(F)cc1 [haloperidol]
[5]
  apoD mRNA, in situ hybridization: did not reveal substantial increases
[6]
  CLZ_43 TOGA profile for the haloperidol response: 1.08 fold
[1]
  CLZ_44 expression, Northern: up-regulated
[7]
  CLZ_43 expression, TOGA and Real Time PCR: not significantly responsive
[3]
  decrease in expression of CLZ_40, Real Time PCR: 0.66 fold
[8]
  increase in expression of CLZ_5 (apoD), Real Time PCR: 1.75 fold
[4]
  increase in expression of mouse homolog to human KIAA1451, Real Time PCR: 2.57 fold

## CN1CC[C@]23c4c5ccc(O)c4O[C@H]2[C@@H](O)C=C[C@H]3[C@H]1C5 [morphine]
[9]; acute morphine 10 mg/kg i.p., withdrawal (naltrexone 1 mg/kg in morphine-tolerant mice)
  CLZ_40 expression in striatum, TOGA: downregulated in withdrawal striatum but not acutely treated striatum
[9]; acutely treated (morphine 10 mg/kg i.p., 4 hours)
  CLZ_40 expression in amygdala, TOGA: slightly upregulated
[9]; chronically treated (75 mg pellet, 3 days) and withdrawal
  CLZ_40 expression in amygdala, TOGA: increasingly upregulated
